The target of one data set is T1, CAII (Homo sapiens, UniProt P00918).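 Also: recombinant human CAII, thermal shift with ANS dye fluorescence, Kd_obs from fitting melting temperature versus ligand concentration, intrinsic values corrected for deprotonated sulfonamide and Zn-bound water fractions.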
T1 construct: made in house; host or cells: E. coli
In words: biochemical. In kind it is binding. As to conditions: FTSA.

Another data set has as its target CAXIII (Homo sapiens, UniProt Q8N1Q1). In words: biochemical. To be noted: FTSA.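 Also: recombinant human CAXIII melting temperature tracked by ANS fluorescence in thermal shift assay, Tm fitted against ligand concentration, intrinsic value corrects Kd for deprotonated sulfonamide and Zn-bound water fractions.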
The target of the next data set is T2, CAXII (Homo sapiens, UniProt O43570).
T2 construct: made in house; host or cells: E. coli
T2 sequence (O43570 25-354): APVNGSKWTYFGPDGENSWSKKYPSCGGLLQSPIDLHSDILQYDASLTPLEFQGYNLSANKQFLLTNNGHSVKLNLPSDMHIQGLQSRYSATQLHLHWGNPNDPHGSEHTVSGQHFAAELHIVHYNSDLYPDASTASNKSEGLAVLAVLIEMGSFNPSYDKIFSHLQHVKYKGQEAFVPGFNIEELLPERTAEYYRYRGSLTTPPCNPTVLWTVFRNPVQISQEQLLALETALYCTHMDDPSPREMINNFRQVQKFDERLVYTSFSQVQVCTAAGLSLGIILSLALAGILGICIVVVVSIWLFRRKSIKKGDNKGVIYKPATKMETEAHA
Description: biochemical. In kind it is binding. As to conditions: FTSA.

A further data set addresses T3, CAI (Homo sapiens, UniProt P00915).
T3 construct: made in house; host or cells: E. coli
Description: biochemical. It is filed as binding. To be noted: FTSA.

A further data set has as its target T4, CAIX (Homo sapiens, UniProt Q16790).
T4 construct: made in house
Description: biochemical. In kind it is binding. As to conditions: FTSA.

Where [1] appears, read: pH 7.0, 37 °C, read-out: Observed Dissociation Constant (Kd_obs), CAII.
Where [2] appears, read: Observed Dissociation Constant (Kd_obs), pH 7.0, 37 °C.
[3] abbreviates: pH 7.0, 37 °C, read-out: Observed Dissociation Constant (Kd_obs), CAXII.
The mark [4] stands for this setting: pH 7.0, 37 °C, read-out: Observed Dissociation Constant (Kd_obs), CAI.
Setting [5] is: pH 7.0, 37 °C, read-out: Observed Dissociation Constant (Kd_obs), CAIX.

Each structure is given as a SMILES string. Values joined by “and” are separate entries in the source; they are usually repeats but may differ in a detail not shown here. Equal entries are not always repeated. Where two headings read alike, the source gives them in different places.
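For Observed Dissociation Constant (Kd obs), CAXII in this document: recombinant CAXII made in E. coli, ANS-fluorescence thermal shift with affinity fitted from Tm versus ligand concentration, intrinsic energy from Kd_obs corrected for deprotonated sulfonamide and Zn-water fractions.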

T3 sequence (P00915 whole entry): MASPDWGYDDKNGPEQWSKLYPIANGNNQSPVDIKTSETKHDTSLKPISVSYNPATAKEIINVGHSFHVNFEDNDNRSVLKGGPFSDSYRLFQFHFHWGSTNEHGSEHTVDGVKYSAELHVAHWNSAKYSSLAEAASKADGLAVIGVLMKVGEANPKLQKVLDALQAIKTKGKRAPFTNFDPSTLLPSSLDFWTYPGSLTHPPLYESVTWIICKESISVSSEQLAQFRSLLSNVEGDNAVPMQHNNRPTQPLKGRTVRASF
CAXIII, sequence (Q8N1Q1 whole entry): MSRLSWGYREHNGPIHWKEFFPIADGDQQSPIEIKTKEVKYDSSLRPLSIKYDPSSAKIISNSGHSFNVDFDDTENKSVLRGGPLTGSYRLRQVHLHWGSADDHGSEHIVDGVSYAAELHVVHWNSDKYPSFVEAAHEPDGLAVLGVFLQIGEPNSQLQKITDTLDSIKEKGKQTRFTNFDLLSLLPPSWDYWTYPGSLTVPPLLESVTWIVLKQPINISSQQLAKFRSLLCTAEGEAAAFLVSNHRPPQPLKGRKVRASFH
Description for CAIX: (§1) Human CA isozymes were expressed in E. coli (CAI, II, III, IV, VA, VB, VII, XII, XIII, XIV) or mammalian cells (CAVI and CAIX), chromatographically purified following the published protocols [47], and stored at −80 °C. The protein concentration was determined by UV absorption at 280 nm using Beer–Lambert law.
(§2) The QIAGEN Rotor-Gene Q was used to carry out the experiments, with a blue channel used for excitation (365 nm) and detection (460 nm). FTSA in this case relies on an extrinsic probe, 8-anilino-1-naphthalenesulfonate (ANS), to detect the fluorescence increase during protein denaturation, from which protein melting temperature (Tm) can be determined. […] The observed affinity of ligands for CAs was determined by plotting the Tm as a function of ligand concentration and then fitting a curve as described previously [48]. […] Samples were heated from 25 °C to 99 °C at the speed of 1 °C/min.
(§3) The intrinsic thermodynamic parameters were calculated as described in [40]. The intrinsic reaction of inhibitor binding to CA is shown in Equation (1).
(§4) When calculating Kd_int values, these protein and ligand fractions from Equation (1) have to be accounted for (Equations (2) and (3)). The intrinsic dissociation constant is calculated by multiplying Kd_obs value by the corresponding fractions of protein and ligand (Equation (4)). (2) fRSO2NH^−=10^pH−pKa_RSO2NH2/1+10^pH−pKa_RSO2NH2 (3) fCAZnH2O=1−10^pH−pKa_CAZnH2O/1+10^pH−pKa_CAZnH2O (4) Kd_int=Kd_obs×fRSO2NH^−×fCAZnH2O (5) ΔGint0=RTlnKd_int
(§5) The intrinsic standard Gibbs energy changes upon binding were calculated using Equation (5). Here, R—universal ideal gas constant (8.3144 J/mol·K), T—absolute temperature (310.15 K).
Description for CAXIII: as §1, §2, §3, §4, §5

Regarding `NS(=O)(=O)c1ccc(NCC(CC(=O)NN=Cc2ccc(F)cc2)C(=O)NN=Cc2ccc(F)cc2)cc1` (stereo not shown) [Compound 13a, 4-((2-(2-(4-Fluorobenzylidene)hydrazine-1-carbonyl)-4-(2-(4-fluorobenzylidene)hydrazineyl)-4-oxobutyl)amino)benzenesulfonamide], the melting point (usually the temperature of the solid-liquid transition) is 153 to 154 °C. In addition, on CAII (setting [1]), the Kd worked out at 2.9 µM. Also, the Kd on CAXIII (setting [2]) turned out to be 20 µM. The Kd at CAXII (setting [3]) is 23 µM. In addition, at CAI (setting [4]), the Kd came to 22 µM. Further, the Kd on CAIX (setting [5]) is 1.4 µM.
As to `NNC(=O)CC(CNc1ccc(S(N)(=O)=O)cc1Cl)C(=O)NN` (stereo not shown) [Compound 2b, 3-Chloro-4-((2-(hydrazinecarbonyl)-4-hydrazineyl-4-oxobutyl)amino)benzenesulfonamide], the Kd on CAII (setting [1]) is 1.3 µM; at CAII (read-out: Kd_obs, CAII) it was 0.83 to 130 µM; on CAXIII (Kd_obs), 0.83 to 130 µM; on CAXIII (setting [2]) it was 6.7 µM; on CAXII (setting [3]) it was 14 µM; on CAXII (read-out: Kd_obs, CAXII), 0.83 to 130 µM. The Kd at CAI (setting [4]) was 6.7 µM; at CAI (read-out: Kd_obs, CAI), 0.83 to 130 µM; at CAIX (setting [5]) it was 0.83 µM; at CAIX (read-out: Kd_obs, CAIX), 0.83 to 130 µM and 0.83 µM.
As to `NS(=O)(=O)c1ccc(NCC(CC(=O)NN=Cc2cccc(Cl)c2)C(=O)NN=Cc2cccc(Cl)c2)c(Cl)c1` (stereo not shown) [Compound 11b, 3-Chloro-4-((2-(2-(3-chlorobenzylidene)hydrazine-1-carbonyl)-4-(2-(3-chlorobenzylidene)hydrazineyl)-4-oxobutyl)amino)benzenesulfonamide], the melting point lay in the range of 175 to 176 °C. For the same molecule, at CAII (setting [1]), the Kd amounted to 0.33 µM. Further, the Kd at CAXIII (setting [2]) was found to be 0.33 µM. In addition, the Kd on CAXII (setting [3]) amounted to 33 µM. The Kd at CAI (setting [4]) was 2.5 µM. Further, the Kd at CAIX (setting [5]) was found to be 0.13 µM.
As to `NNC(=O)CC(CNc1ccc(S(N)(=O)=O)cc1)C(=O)NN` (stereo not shown) [Compound 2a, 4-((2-(Hydrazinecarbonyl)-4-hydrazineyl-4-oxobutyl)amino)benzenesulfonamide], the melting point lay in the range of 164 to 165 °C. For the same molecule, the Kd on CAII (setting [1]) is 14 µM. Moreover, at CAII (read-out: Kd_obs, CAII), the Kd lay within 0.83 to 130 µM. Also, the Kd on CAXIII (Kd_obs) is 0.83 to 130 µM. This molecule displayed a Kd on CAXIII (setting [2]) of 130 µM. Moreover, the Kd on CAXII (setting [3]) came to 71 µM. Moreover, the Kd at CAXII (read-out: Kd_obs, CAXII) lay within 0.83 to 130 µM. The Kd at CAI (setting [4]) was 78 µM. In addition, the Kd at CAI (read-out: Kd_obs, CAI) fell in the range of 0.83 to 130 µM. In addition, the Kd at CAIX (setting [5]) worked out at 4 µM. Also, at CAIX (read-out: Kd_obs, CAIX), the Kd lay in the range of 0.83 to 130 µM.
`COc1ccc(C=NNC(=O)CC(CNc2ccc(S(N)(=O)=O)cc2)C(=O)NN=Cc2ccc(OC)cc2)cc1` (stereo not shown) [Compound 14a, 4-((2-(2-(4-Methoxybenzylidene)hydrazine-1-carbonyl)-4-(2-(4-methoxybenzylidene)hydrazineyl)-4-oxobutyl)amino)benzenesulfonamide]: the melting point fell in the range of 168 to 169 °C. Moreover, at CAII (setting [1]), the Kd is 3.4 µM. On CAXIII (setting [2]), this molecule displayed a Kd of 23 µM. In addition, the Kd on CAXII (setting [3]) is 38 µM. For the same molecule, the Kd on CAI (setting [4]) was found to be 32 µM. For the same molecule, on CAIX (setting [5]), the Kd is 1.4 µM.
`CC(C)=NNC(=O)CC(CNc1ccc(S(N)(=O)=O)cc1Cl)C(=O)NN=C(C)C` (stereo not shown) [Compound 3b, 3-Chloro-4-((4-oxo-2-(2-(propan-2-ylidene)hydrazine-1-carbonyl)-4-(2-(propan-2-ylidene)hydrazineyl)butyl)amino)benzenesulfonamide]: the Kd on CAII (setting [1]) came to 1.8 µM; at CAXIII (setting [2]), 6.7 µM; at CAXII (setting [3]) it was 14 µM; on CAI (setting [4]), 10 µM; on CAIX (setting [5]), 0.67 µM.
For the molecule `CC(C)=NNC(=O)CC(CNc1ccc(S(N)(=O)=O)cc1)C(=O)NN=C(C)C` (stereo not shown) [Compound 3a, 4-((4-Oxo-2-(2-(propan-2-ylidene)hydrazine-1-carbonyl)-4-(2-(propan-2-ylidene)hydrazineyl)butyl)amino)benzenesulfonamide], the Kd on CAII (setting [1]) worked out at 13 µM; at CAXIII (setting [2]), 100 µM; at CAXII (setting [3]) it was 110 µM; at CAI (setting [4]), 170 µM; at CAIX (setting [5]), 6.7 µM.

Source of the values: article PMC9033141, “Beta and Gamma Amino Acid-Substituted Benzenesulfonamides as Inhibitors of Human Carbonic Anhydrases” (Pharmaceuticals, 2022).
